The values that follow come from US20030004175A1, “1,3-oxathiolane nucleoside analogues” (BioChem Pharma Inc., priority 1990, published 2003).

The subject of series [1] is HIV-1 strain RF. Description: Antiviral activity by inhibition of syncytium formation, CEM cells infected with HIV-1 RF. Particulars: Human immunodeficiency virus 1, CCRF-CEM, read-out: 50% Antiviral Activity. The series is classed as cell-based. On the procedure: (§1) Antiviral activity of the compounds of Example 2 were determined against three strains of HIV-1 and one strain of HIV-2 in the following cell lines.
(§2) CEM cells, a human T-lymphoblastoid cell line, infected with HIV-1 strains RF and U455, or HIV-2 strain ROD.
(§3) Antiviral activities in C8166, JM, and CEM cells were determined by inhibition of syncytium formation (Tochikura et al Virology, 164, 542-546) and in MT-4 cells by inhibition of formazan conversion (Baba et al; (1987) Biochem Biophys Res Commun., 142, 128-134; Mossman (1983) J. Immun Meth; 65, 55-57). Antiviral activities were also determined by analysing the amount of HIV p24 antigen synthesised in the presence and absence of enantiomers.

Series [2] deals with HIV-1 strain RF. The experiment in a line: Inhibition of HIV p24 antigen synthesis, MT-4 cells, strain RF. The series is classed as cell-based. Particulars: Human immunodeficiency virus 1, MT4, read-out: 50% Inhibition HIV p24 Synthesis. The procedure: as §1
(§4) MT-4 cells, a human T-cell leukaemia cell line, infected with HIV-1 strain RF.
as §3

The test system of another series is CEM cells. The experiment in a line: Cytotoxicity, viable cell count by trypan blue exclusion, CEM cells. The series is classed as cell-based, human. Conditions: 5 days at 37° C. On the procedure: (§5) The cytotoxicites of the compounds of Example 2, the racemic compound (BCH-189; […] H9, JM, CEM, C8166 and U937. […] After incubation at 37° C. for 5 days, the viable cell count was determined by removing a sample of cell suspension and counting trypan blue excluding cells in a haemocytometer.

A further series deals with C8166 cells. Description: Cytotoxicity, viable cell count by trypan blue exclusion, C8166 cells. The series is classed as cell-based, human. Conditions: 5 days at 37° C. The procedure: as §5
Series [3] concerns HIV-1 strain GB8. The experiment in a line: Inhibition of HIV p24 antigen synthesis, JM cells, strain GB8. The format is cell-based. Particulars: Human immunodeficiency virus 1, read-out: 50% Inhibition HIV p24 Synthesis. On the procedure:
as §1
(§6) JM cells, a semi-mature T-cell line derived from a patient with lymphoblastic leukaemia, infected with HIV-1 strain GB8.
as §3

Series [4] concerns HIV-1 strain RF. Description: Inhibition of HIV p24 antigen synthesis, C8166 cells, strain RF. Particulars: Human immunodeficiency virus 1, read-out: 50% Inhibition HIV p24 Synthesis. The format is cell-based. The procedure: as §1
(§7) C8166 cells, a human T-lymphoblastoid cell line, infected with HIV-1 strain RF.
as §3

The test system of the next series is HIV-2 strain ROD. The experiment in a line: Antiviral activity by inhibition of syncytium formation, CEM cells infected with HIV-2 ROD. The series is classed as cell-based. Particulars: Human immunodeficiency virus 2, CCRF-CEM, read-out: 50% Antiviral Activity. The procedure:
as §1, §2, §3

Series [5] has as its system HIV-1 strain RF. Description: Antiviral activity by inhibition of formazan conversion, MT-4 cells infected with HIV-1 RF. Particulars: Human immunodeficiency virus 1, MT4, Formazan assay, read-out: 50% Antiviral Activity. The format is cell-based. On the procedure:
as §1, §4, §3

The subject of a further series is HIV-1 strain U455. The experiment in a line: Antiviral activity by inhibition of syncytium formation, CEM cells infected with HIV-1 U455. Conditions: Human immunodeficiency virus 1, CCRF-CEM, read-out: 50% Antiviral Activity. The format is cell-based. The procedure: as §1, §2, §3
For series [6], the system named is HIV-1 strain GB8. The experiment in a line: Antiviral activity by inhibition of syncytium formation, JM cells infected with HIV-1 GB8. The format is cell-based. Conditions: Human immunodeficiency virus 1, read-out: 50% Antiviral Activity. The procedure: as §1, §6, §3
The next series relates to U937 cells. The experiment in a line: Cytotoxicity, viable cell count by trypan blue exclusion, U937 cells. The series is classed as cell-based. Conditions: 5 days at 37° C. On the procedure:
as §5

The next series concerns H9 cells. Description: Cytotoxicity, viable cell count by trypan blue exclusion, H9 cells. The format is cell-based. Particulars: 5 days at 37° C. The procedure: as §5
The test system of a further series is JM cells. The experiment in a line: Cytotoxicity, viable cell count by trypan blue exclusion, JM cells. The format is cell-based. Particulars: 5 days at 37° C. On the procedure: as §5
Series [7] deals with HIV-1 strain RF. Description: Antiviral activity by inhibition of syncytium formation, C8166 cells infected with HIV-1 RF. The series is classed as cell-based. Conditions: Human immunodeficiency virus 1, read-out: 50% Antiviral Activity. The procedure: as §1, §7, §3
The next series concerns CD4 cell lines. The experiment in a line: Cytotoxicity (summary statement). The series is classed as cell-based. On the procedure:
Compounds for test were serially diluted from 100 μg/ml to 0.3 μg/ml (final concentrations) in 96 well microtitre plates. 3.6×10^4 cells were inoculated into each well of the plates including drug-free controls. After incubation at 37° C. for 5 days, the viable cell count was determined by removing a sample of cell suspension and counting trypan blue excluding cells in a haemocytometer.

Converted amounts (≈) assume the structure as drawn.

For `Nc1ccn([C@H]2CS[C@@H](CO)O2)c(=O)n1` [(+)-enantiomer, (2S,cis)-4-amino-1-(2-hydroxymethyl-1,3-oxathiolan-5-yl)-(1H)-pyrimidin-2-one], the IC50 with HIV-1 strain RF [1] came out at 0.07 µg/mL (≈ 0.305 µM); in the series with HIV-1 strain RF [2] it was 0.0008 µg/mL (≈ 0.00349 µM); with HIV-1 strain GB8 [3], 0.033 µg/mL (≈ 0.144 µM); with HIV-1 strain RF [4] it was 0.021 µg/mL (≈ 0.0916 µM); in the series on HIV-2 strain ROD, 0.045 µg/mL (≈ 0.196 µM); with HIV-1 strain RF [5] it was 0.28 µg/mL (≈ 1.22 µM). Moreover, the IC50 in the series on HIV-1 strain U455 was found to be 0.006 µg/mL (≈ 0.0262 µM); in the series on HIV-1 strain GB8 [6], 0.03 µg/mL (≈ 0.131 µM); in the series with HIV-1 strain RF [7] it was 0.05 µg/mL (≈ 0.218 µM). In addition, the “50% Cytoxicity” value in the series on CEM cells is 1 µg/mL; in the series on C8166 cells it was 35 µg/mL; with U937 cells it was 4 µg/mL; in the series on H9 cells it was 2 µg/mL; in the series on JM cells it was 1.5 µg/mL.

`Nc1ccn([C@@H]2CS[C@H](CO)O2)c(=O)n1` (racemic) [BCH-189, (±)-(cis)-4-Amino-1-(2-hydroxymethyl-1,3-oxathiolan-5-yl)-(1H)-pyrimidin-2-one]: the “50% Cytoxicity” value in the series on CEM cells came to 3 µg/mL; in the series with C8166 cells, 90 µg/mL; with U937 cells it was 15 µg/mL; in the series with H9 cells, 8 µg/mL; in the series on JM cells, 3.5 µg/mL.

As to `Nc1ccn([C@@H]2CS[C@H](CO)O2)c(=O)n1` [(−)-enantiomer, (−)-cis-4-Amino-1-(2-hydroxymethyl-1,3-oxathiolan-5-yl)-(1H)-pyrimidin-2-one], the IC50 in the series with HIV-1 strain RF [1] came to 0.04 µg/mL (≈ 0.174 µM); in the series with HIV-1 strain RF [2] it was 0.0004 µg/mL (≈ 0.00174 µM); in the series with HIV-1 strain GB8 [3], 0.016 µg/mL (≈ 0.0698 µM); in the series with HIV-1 strain RF [4] it was 0.016 µg/mL (≈ 0.0698 µM); in the series on HIV-2 strain ROD, 0.055 µg/mL (≈ 0.24 µM); in the series on HIV-1 strain RF [5] it was 0.2 µg/mL (≈ 0.872 µM). For the same molecule, the IC50 was found to be 0.008 µg/mL (≈ 0.0349 µM) in the series on HIV-1 strain U455, 0.05 µg/mL (≈ 0.218 µM) in the series on HIV-1 strain GB8 [6] and 0.01 µg/mL (≈ 0.0436 µM) in the series on HIV-1 strain RF [7]. Moreover, the “50% Cytoxicity” value is above 100 µg/mL in the series on CEM cells; above 100 µg/mL in the series on C8166 cells; above 100 µg/mL with U937 cells; above 100 µg/mL in the series on H9 cells; 30 µg/mL with JM cells. In the series with CD4 cell lines, the “cytotoxicity compared with the other enantiomer” value is “considerably lower cytotoxicity”.
